Among the data in patent US9840481B2, “Allosteric modulators of nicotinic acetylcholine receptors” (MERCK SHARP & DOHME CORP., priority 2016, dated 2017) are EC50 values, retold here.

The target in this test is T1, human α7 nAChR stably expressed in a HEK cell line (with human RIC-3) (Homo sapiens, UniProt P36544).
T1 construct: PrecisION hnAChR α7/RIC-3
Nature of the test: Automated patch-clamp electrophysiology functional assay (Assay A), IonFlux HT, whole-cell population patch. Type of test: cell-based. In outline:
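Whole-cell population patch clamp (IonFlux HT) used HEK cells stably co-expressing human α7 and RIC-3, held at −60 mV at room temperature. Compounds were applied alone (agonism) or with 40 μM acetylcholine (potentiation), three ascending concentrations per recording. Currents were quantified relative to a 40 μM acetylcholine reference response, giving EC50.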
For orientation: The patch-clamp technique gives a direct electrical read-out from membranes.

Where [1] appears, read: automated patch-clamp electrophysiology functional assay (Assay A), potency class by EC50, read-out: α7 nAChR Potency.
Where [2] appears, read: electrophysiology EC50, HEK cells expressing human α7/RIC-3, 40 μM acetylcholine, holding potential −60 mV, room temperature, read-out: α7 nAChR EC50.

Where two headings read alike, the source gives them in different places.

T1 sequence (P36544 23-502): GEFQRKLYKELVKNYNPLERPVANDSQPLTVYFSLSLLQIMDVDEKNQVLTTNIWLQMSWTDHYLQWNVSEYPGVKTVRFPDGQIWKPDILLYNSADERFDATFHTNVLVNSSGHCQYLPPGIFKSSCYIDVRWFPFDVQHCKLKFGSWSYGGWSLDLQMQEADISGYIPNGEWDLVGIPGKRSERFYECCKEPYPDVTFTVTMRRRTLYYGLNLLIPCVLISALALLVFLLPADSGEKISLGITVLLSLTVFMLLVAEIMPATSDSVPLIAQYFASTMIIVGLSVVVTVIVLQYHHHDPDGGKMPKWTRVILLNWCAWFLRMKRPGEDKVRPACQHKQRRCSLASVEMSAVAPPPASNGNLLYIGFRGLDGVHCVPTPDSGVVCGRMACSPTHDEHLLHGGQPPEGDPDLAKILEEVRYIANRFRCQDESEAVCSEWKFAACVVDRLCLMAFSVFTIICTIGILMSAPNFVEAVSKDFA

Consider `CC1(C)[C@H](c2ccc(S(N)(=O)=O)cc2)[C@H]1c1nc(C2CCCC2)no1` [Example B9], for which the EC50 under setting [1] was 500 to 5000 nM and the EC50 under setting [2] was determined as 1000 nM. On to `CC1(C)[C@H](c2ccc(S(N)(=O)=O)cc2)[C@H]1c1noc(C2CCCCC2)n1` [Example L16], for which the EC50 under setting [1] is 500 to 5000 nM. With `CC1(C)[C@H](c2ccc(S(N)(=O)=O)cc2)[C@H]1c1nc(CC2CC2)no1` [Example B10], the EC50 was 500 to 5000 nM under setting [1] and 3000 nM under setting [2]. On to `NS(=O)(=O)c1ccc([C@@H]2C[C@H]2c2cnc(-c3ccccc3)o2)cc1` [Example L3], for which, under setting [1], the EC50 lay within 500 to 5000 nM. `CC1(C)[C@@H](c2ccc(S(N)(=O)=O)cc2)[C@@H]1c1noc(C2CCCC2)n1` [Example I26]: the EC50 is, setting by setting: under setting [1], not above 100 nM; under setting [2], 64 nM. In the case of `CC1(C)[C@@H](c2ccc(S(N)(=O)=O)cc2)[C@@H]1c1nc(C2CC2)no1` [Example D9], the EC50 under setting [1] lay within 100 to 500 nM.

For `CC1(C)[C@@H](c2ccc(S(N)(=O)=O)cc2)[C@@H]1c1noc(CCC2CC2)n1` [Example 2, 4-((1S,3S)-3-(5-(2-Cyclopropylethyl)-1,2,4-oxadiazol-3-yl)-2,2-dimethylcyclopropyl)benzenesulfonamide], under setting [1], the EC50 was 100 to 500 nM. As to `CC1(C)[C@@H](c2ccc(S(N)(=O)=O)cc2)[C@@H]1c1nc(C2CCC2)no1` [Example D7], the EC50 under setting [1] is 100 to 500 nM.

For `CC1(C)[C@@H](c2ccc(S(N)(=O)=O)cc2)[C@@H]1c1csc(C2CCCC2)n1` [Example L15], the EC50 by setting is: under setting [1], 100 to 500 nM; under setting [2], 370 nM. Taken in the same sequence, the figures for `CC1(C)[C@@H](c2ccc(S(N)(=O)=O)cc2)[C@@H]1c1nc(C2CCCC2)no1` [Example D20] were not above 100 nM and 69 nM. Regarding `NS(=O)(=O)c1ccc([C@@H]2C[C@H]2c2nc(CC3CC3)no2)cc1` [Example D28], under setting [1], the EC50 is 500 to 5000 nM. For the compound `CC1(C)[C@H](c2ccc(S(N)(=O)=O)cc2)[C@H]1c1nnc(-c2ccccc2)[nH]1` [Example F5], the EC50 runs as follows: under setting [1], 500 to 5000 nM; under setting [2], 1000 nM.

Turning to `CC1(C)[C@H](c2ccc(S(N)(=O)=O)cc2)[C@H]1c1nnc(-c2cccnc2C2CC2)o1` [Example F6], the EC50 under setting [1] is 500 to 5000 nM. With `NS(=O)(=O)c1ccc([C@@H]2C[C@H]2c2cnc(-c3ccccc3)s2)cc1` [Example 27, 4-[(1R,2R)-2-(2-Phenyl-1,3-thiazol-5-yl)cyclopropyl]benzenesulfonamide], the EC50 is 500 to 5000 nM under setting [1] and 620 nM under setting [2]. For the compound `CC1(C)[C@@H](c2ccc(S(N)(=O)=O)cc2)[C@@H]1c1noc(-c2cccc3c2OCC(=O)N3)n1` [Example I31], under setting [1], the EC50 is 500 to 5000 nM.

In the case of `CC1(C)[C@@H](c2ccc(S(N)(=O)=O)cc2)[C@@H]1c1noc(C2(c3cnccn3)CC2)n1` [Example I12], the EC50 under setting [1] lay within 500 to 5000 nM. Same read-out and setting: the same measure for `CC1(C)[C@@H](c2ccc(S(N)(=O)=O)cc2)[C@@H]1c1nc(C2CCCCC2O)no1` (stereo partly drawn) [Example D32]: 500 to 5000 nM. With `NS(=O)(=O)c1ccc([C@@H]2[C@@H](c3nc(C4CCCC4)no3)C2(F)F)cc1` [Example B19], the EC50 is 100 to 500 nM under setting [1] and 370 nM under setting [2]. Take `NS(=O)(=O)c1ccc([C@@H]2C[C@H]2c2noc(N3CCCCC3)n2)cc1` [Example 37, 4-{(1R,2R)-2-[5-(Piperidin-1-yl)-1,2,4-oxadiazol-3-yl]cyclopropyl}benzenesulfonamide]: the EC50 was 100 to 500 nM under setting [1] and 240 nM under setting [2]. As to `CC(C)(C)c1noc([C@@H]2[C@@H](c3ccc(S(N)(=O)=O)cc3)C2(F)F)n1` [Example B17], the EC50 under setting [1] is 500 to 5000 nM and the EC50 under setting [2] worked out at 850 nM. The matching figures for `NS(=O)(=O)c1ccc([C@@H]2C[C@H]2c2nc(-c3ccc(F)cc3)no2)cc1` [Example C14]: not above 100 nM and 93 nM. Regarding `NS(=O)(=O)c1ccc([C@@H]2C[C@H]2c2noc(C3CCCCC3)n2)cc1` [Example I34], the EC50 under setting [1] was 100 to 500 nM. `NS(=O)(=O)c1ccc([C@@H]2C[C@H]2c2nsc(N3CCCCC3)n2)cc1` [Example 29, 4-{(1R,2R)-2-[5-(Piperidin-1-yl)-1,2,4-thiadiazol-3-yl]cyclopropyl}benzenesulfonamide]: the EC50 reads like this: under setting [1], 100 to 500 nM; under setting [2], 140 nM. For `CC1(C)[C@@H](c2ccc(S(N)(=O)=O)cc2)[C@@H]1c1nnc(C2CCCC2)s1` [Example G14], the EC50 runs as follows: under setting [1], 500 to 5000 nM; under setting [2], 920 nM.

With `CC1(C)[C@H](c2ccc(S(N)(=O)=O)cc2)[C@H]1c1nc(-c2cc(F)ccc2F)co1` [Example J3], the EC50 under setting [1] is 500 to 5000 nM.

For the compound `CC1(C)[C@@H](c2ccc(S(N)(=O)=O)cc2)[C@@H]1c1noc(-c2cnc(SCC(F)(F)F)o2)n1` [Example I18], the EC50 reads like this: under setting [1], 500 to 5000 nM; under setting [2], 1300 nM. In the case of `CC1(C)[C@@H](c2ccc(S(N)(=O)=O)cc2)[C@@H]1c1nnc(-c2cccc(C(F)(F)F)c2)o1` [Example G2], the EC50 under setting [1] lay in the range of 500 to 5000 nM. Take `NS(=O)(=O)c1ccc([C@@H]2C[C@H]2c2nc(Cc3ccc(F)cc3F)no2)cc1` [Example D26]: the EC50 was 500 to 5000 nM under setting [1] and 810 nM under setting [2]. The matching figures for `CC1(C)C(c2ccc(S(N)(=O)=O)c(F)c2)C1c1nc(-c2ccccc2)no1` (single isomer, unassigned; enantiomer a) [Example 32, 4-[trans-2,2-Dimethyl-3-(3-phenyl-1,2,4-oxadiazol-5-yl)cyclopropyl]-2-fluorobenzenesulfonamide, enantiomer A]: 500 to 5000 nM and 860 nM. Turning to `CC(F)(F)c1nc([C@H]2[C@H](c3ccc(S(N)(=O)=O)cc3)C2(C)C)no1` [Example I16], the EC50 under setting [1] is 100 to 500 nM and the EC50 under setting [2] was 350 nM.

Consider `CC1(C)[C@@H](c2ccc(S(N)(=O)=O)cc2)[C@@H]1c1nnc(-c2c(F)cccc2C(F)(F)F)o1` [Example G17], for which the EC50 is 500 to 5000 nM under setting [1] and 950 nM under setting [2]. As for `CC1(C)C(c2nc(-c3ccccc3)no2)C1c1ccc(S(N)(=O)=O)cc1F` (single isomer, unassigned) [Example M7], under setting [1], the EC50 lay in the range of 500 to 5000 nM.

On to `CC(C)c1noc([C@H]2[C@H](c3ccc(S(N)(=O)=O)cc3)C2(C)C)n1` [Example D5], for which the EC50 reads like this: under setting [1], 100 to 500 nM; under setting [2], 420 nM.

With `CC1(C)[C@H](c2ccc(S(N)(=O)=O)cc2)[C@H]1c1nc(-c2ccccc2C(F)(F)F)no1` [Example A13], under setting [1], the EC50 fell in the range of 500 to 5000 nM. With `NS(=O)(=O)c1ccc([C@@H]2C[C@H]2c2nc(-c3c(F)cccc3F)no2)cc1` [Example C9], the EC50 under setting [1] was in the range of 500 to 5000 nM.

Take `CC1(C)[C@H](c2ccc(S(N)(=O)=O)cc2)[C@H]1c1cnn(C2CCCC2)c1` [Example L8]: the EC50 under setting [1] is 500 to 5000 nM. For `NS(=O)(=O)c1ccc([C@@H]2C[C@H]2c2nc(-c3cccc(Br)c3)no2)cc1` [Example C10], the EC50 under setting [1] was 500 to 5000 nM. As to `CC1(C)[C@@H](c2ccc(S(N)(=O)=O)cc2)[C@@H]1c1cnc(-c2ccccc2)o1` [Example L1], under setting [1], the EC50 fell in the range of 500 to 5000 nM. For the compound `NS(=O)(=O)c1ccc([C@@H]2C[C@H]2c2nc(-c3ccccc3)co2)cc1` [Example 9, 4-[(1R,2R)-2-(4-Phenyl-1,3-oxazol-2-yl)cyclopropyl]benzenesulfonamide], the EC50 is 100 to 500 nM under setting [1] and 430 nM under setting [2]. Regarding `NS(=O)(=O)c1ccc([C@@H]2C[C@H]2c2ncc(-c3ccccc3)o2)cc1` [Example 8, 4-[(1R,2R)-2-(5-Phenyl-1,3-oxazol-2-yl)cyclopropyl]benzenesulfonamide], the EC50 reads like this: under setting [1], 100 to 500 nM; under setting [2], 500 nM. Regarding `NS(=O)(=O)c1ccc([C@@H]2C[C@H]2c2cnc(C3CCCC3)o2)cc1` [Example L21], the EC50 under setting [1] was 500 to 5000 nM. Consider `NS(=O)(=O)c1ccc([C@@H]2C[C@H]2c2nc(-c3ccc(F)cc3F)no2)cc1` [Example C13], for which the EC50 was 100 to 500 nM under setting [1] and 160 nM under setting [2]. Regarding `CC1(C)[C@@H](c2ccc(S(N)(=O)=O)cc2)[C@@H]1c1ncc(C2CCCC2)o1` [Example K14], under setting [1], the EC50 is 500 to 5000 nM. `CC1(C)[C@@H](c2ccc(S(N)(=O)=O)cc2)[C@@H]1c1noc(C2CCC(O)CC2)n1` (stereo partly drawn) [Example I29]: the EC50 was 5000 to 50000 nM under setting [1] and 6800 nM under setting [2]. The matching figures for `NS(=O)(=O)c1ccc([C@@H]2C[C@H]2c2nc(C3(c4ccccc4)CC3)no2)cc1` [Example D23]: 500 to 5000 nM and 2100 nM. The matching figures for `CC1(C)[C@@H](c2ccc(S(N)(=O)=O)cc2)[C@@H]1c1noc(-c2cccc(C3CC3)c2)n1` [Example H9]: 500 to 5000 nM and 1400 nM.

Take `NS(=O)(=O)c1ccc([C@@H]2C[C@H]2c2noc(-c3cncc(F)c3)n2)cc1` [Example I36]: the EC50 was 500 to 5000 nM under setting [1] and 1400 nM under setting [2].

On to `CC1(C)[C@H](c2ccc(S(N)(=O)=O)cc2)[C@H]1c1nnc(-c2ccccc2)s1` [Example F4], for which the EC50 is 100 to 500 nM under setting [1] and 420 nM under setting [2].

`CC1(C)[C@@H](c2ccc(S(N)(=O)=O)cc2)[C@@H]1c1nc(-c2ccccc2F)co1` [Example K1]: the EC50 under setting [1] lay within 100 to 500 nM. Take `NS(=O)(=O)c1ccc(C2CC2c2coc(-c3ccccc3)n2)cc1` (stereo not drawn) [Example 24, 4-[trans-2-(2-Phenyl-1,3-oxazol-4-yl)cyclopropyl]benzenesulfonamide]: the EC50 is 500 to 5000 nM under setting [1] and 2400 nM under setting [2]. Take `NS(=O)(=O)c1ccc([C@@H]2C[C@H]2c2nc(-c3cccc(F)c3)no2)cc1` [Example 4, 4-((1R,2R)-2-(3-(3-Fluorophenyl)-1,2,4-oxadiazol-5-yl)cyclopropyl)benzenesulfonamide]: the EC50 is 100 to 500 nM under setting [1] and 230 nM under setting [2]. `CC1(C)[C@H](c2ccc(S(N)(=O)=O)cc2)[C@H]1c1nc(-c2ccccc2F)no1` [Example A12]: the EC50 under setting [1] lay in the range of 500 to 5000 nM.
